The source of these data is patent EP0844825B1, “INSECTICIDAL N-(SUBSTITUTED ARYLMETHYL)-4- BIS(SUBSTITUTED PHENYL OR PYRIDYL)METHYL]PIPERIDINES” (FMC CORPORATION, priority 1995, dated 1996).

For this experiment, the system named is tobacco budworm (Heliothis virescens [Fabricius]). Nature of the experiment: Diet test: test chemical incorporated into artificial diet of tobacco budworm larvae, 5-day exposure. To be noted: for mortality at 100 µM: read-out: Percent Mortality; for IC50: read-out: pl50 (converted); for LC50: negative log of the concentration that provides 50% mortality, read-out: pLC50 (converted). It counts as in vivo. On the procedure:
Candidate insecticides were incorporated into an artificial diet for evaluation of insecticidal activity against the tobacco budworm (Heliothis virescens [Fabricius]) in the following manner. Stock solutions of test chemical in dimethyl sulfoxide, ranging from […], were prepared for each rate of application. One hundred microliters of each of the stock solutions was manually stirred into 50 mL of a molten (65-70°C) wheat germ-based artificial diet. The 50 mL of molten diet containing the test chemical was poured evenly into twenty wells in the outer two rows on each side of a twenty-five well, five row plastic tray. (Each well in the tray was about 1 cm in depth, with an opening of 3 cm by 4 cm at the lip.) Molten diet containing only dimethyl sulfoxide at the levels used in the test chemical-treated diet was poured into the five wells in the third (center) row of the tray. Each tray therefore contained one test chemical at a single rate of application, together with an untreated control. The rates of application, expressed as the negative log of the molar concentration, and the corresponding concentrations of the stock solution prepared for each rate are shown below:
Single second instar tobacco budworm larvae, selected at a stage of growth at which they uniformly weigh about 5 mg each, were placed in each well. Upon completion of infestation, a sheet of clear plastic was heat-sealed over the top of the tray by use of a common household flat.iron. The trays were held at 25°C at 60% relative humidity for five days in a growth chamber. Lighting was set at 14 hours of light and 10 hours of darkness. After the 5-day exposure period, mortality counts were taken, and the surviving insects were weighed. From the weights of the surviving insects that fed on the treated diet as compared to those insects that fed on the untreated diet, the percent growth inhibition caused by each test chemical was determined. […] Also, where possible, the negative log of the concentration of the test chemical that provided 50% mortality (pLC50) was determined.

The mark [1] stands for this setting: Heliothis virescens, feed or water, 120 h.
Setting [2] is: Heliothis virescens, 120 h, negative log of the concentration that provides 50% growth inhibition, by linear regression, 5 days, * = average of more than one test.
Setting [3] is: Heliothis virescens, 120 h, 5 days, * = average of more than one test.
Where [4] appears, read: rate of application 4 (negative log of molar concentration in the diet), second instar larvae, 5 days, 25°C, * = average of more than one test.

One may read the mortality as the percentage killed.

As to `[O-][N+]1(Cc2ccc(Oc3ccccn3)cc2)CCC(C(O)(c2ccc(C(F)(F)F)cc2)c2ccc(C(F)(F)F)cc2)CC1` (centres unmarked) [Compound 54], the mortality at 100 µM under setting [1] is 100%.

As for `[O-][n+]1ccccc1Oc1ccc(CN2CCC(C(O)(c3ccc(C(F)(F)F)cc3)c3ccc(C(F)(F)F)cc3)CC2)cc1` [Compound 55], the IC50 under setting [2] was 3160 nM. Under setting [3], the LC50 was 79.4 µM. The mortality at 100 µM under setting [1] was determined as 55%. The “Percent Growth Inhibition” value under setting [4] is given as 100%.

With `[O-][n+]1ccccc1Oc1ccc(C[N+]2([O-])CCC(C(O)(c3ccc(C(F)(F)F)cc3)c3ccc(C(F)(F)F)cc3)CC2)cc1` (centres unmarked) [Compound 56], the mortality at 100 µM under setting [1] stood at 100%.

As to `Cc1cccnc1Oc1ccc(CN2CCC(C(O)(c3ccc(C(F)(F)F)cc3)c3ccc(C(F)(F)F)cc3)CC2)cc1` [Compound 57], the IC50 under setting [2] was 794 nM. Moreover, the LC50 under setting [3] is 7.94 µM. Further, the mortality at 100 µM under setting [1] is 100%. The “Percent Growth Inhibition” value under setting [4] is given as 100%.

On to `Cc1cccnc1Oc1ccc(C[N+]2([O-])CCC(C(O)(c3ccc(C(F)(F)F)cc3)c3ccc(C(F)(F)F)cc3)CC2)cc1` (centres unmarked) [Compound 58], for which, under setting [1], the mortality at 100 µM was determined as 100%.

Consider `Cc1ccc[n+]([O-])c1Oc1ccc(CN2CCC(C(O)(c3ccc(C(F)(F)F)cc3)c3ccc(C(F)(F)F)cc3)CC2)cc1` [Compound 59], for which the mortality at 100 µM under setting [1] is 100%.

For the compound `OC(c1ccc(C(F)(F)F)cc1)(c1ccc(C(F)(F)F)cc1)C1CCN(Cc2ccc(Oc3ncccc3C(F)(F)F)cc2)CC1` [Compound 60], the mortality at 100 µM under setting [1] was 100%.

With `[O-][N+]1(Cc2ccc(Oc3ncccc3C(F)(F)F)cc2)CCC(C(O)(c2ccc(C(F)(F)F)cc2)c2ccc(C(F)(F)F)cc2)CC1` (centres unmarked) [Compound 61], the mortality at 100 µM under setting [1] was found to be 100%.

On to `Cc1ccnc(Oc2ccc(CN3CCC(C(O)(c4ccc(C(F)(F)F)cc4)c4ccc(C(F)(F)F)cc4)CC3)cc2)c1` [Compound 62], for which, under setting [2], the IC50 is 631 nM. For the same compound, the LC50 under setting [3] is 6.31 µM. For the same compound, the mortality at 100 µM under setting [1] amounted to 100%. Further, under setting [4], the “Percent Growth Inhibition” value is listed as 100%.

On to `Cc1ccnc(Oc2ccc(C[N+]3([O-])CCC(C(O)(c4ccc(C(F)(F)F)cc4)c4ccc(C(F)(F)F)cc4)CC3)cc2)c1` (centres unmarked) [Compound 63], for which the mortality at 100 µM under setting [1] is 100%.

As to `OC(c1ccc(C(F)(F)F)cc1)(c1ccc(C(F)(F)F)cc1)C1CCN(Cc2ccc(Oc3cc(C(F)(F)F)ccn3)cc2)CC1` [Compound 64], the mortality at 100 µM under setting [1] worked out at 100%.

With `[O-][n+]1ccc(C(F)(F)F)cc1Oc1ccc(CN2CCC(C(O)(c3ccc(C(F)(F)F)cc3)c3ccc(C(F)(F)F)cc3)CC2)cc1` [Compound 65], the mortality at 100 µM under setting [1] amounted to 25%.

With `OC(c1ccc(C(F)(F)F)cc1)(c1ccc(C(F)(F)F)cc1)C1CCN(Cc2ccc(Oc3ccc(Cl)cn3)cc2)CC1` [Compound 66], under setting [1], the mortality at 100 µM was 100%.

For `[O-][N+]1(Cc2ccc(Oc3ccc(Cl)cn3)cc2)CCC(C(O)(c2ccc(C(F)(F)F)cc2)c2ccc(C(F)(F)F)cc2)CC1` (centres unmarked) [Compound 67], the mortality at 100 µM under setting [1] was 70%.

`Cc1ccc(Oc2ccc(CN3CCC(C(O)(c4ccc(C(F)(F)F)cc4)c4ccc(C(F)(F)F)cc4)CC3)cc2)nc1` [Compound 68]: under setting [1], the mortality at 100 µM came to 90%.

Regarding `Cc1ccc(Oc2ccc(C[N+]3([O-])CCC(C(O)(c4ccc(C(F)(F)F)cc4)c4ccc(C(F)(F)F)cc4)CC3)cc2)nc1` (centres unmarked) [Compound 69], under setting [1], the mortality at 100 µM was 100%.

As for `OC(c1ccc(C(F)(F)F)cc1)(c1ccc(C(F)(F)F)cc1)C1CCN(Cc2ccc(Oc3ccc(C(F)(F)F)cn3)cc2)CC1` [Compound 70], the mortality at 100 µM under setting [1] was 100%.

Take `[O-][N+]1(Cc2ccc(Oc3ccc(C(F)(F)F)cn3)cc2)CCC(C(O)(c2ccc(C(F)(F)F)cc2)c2ccc(C(F)(F)F)cc2)CC1` (centres unmarked) [Compound 71]: the mortality at 100 µM under setting [1] amounted to 100%.

For `N#Cc1ccc(Oc2ccc(CN3CCC(C(O)(c4ccc(C(F)(F)F)cc4)c4ccc(C(F)(F)F)cc4)CC3)cc2)nc1` [Compound 72], under setting [1], the mortality at 100 µM came to 100%.

Regarding `N#Cc1ccc(Oc2ccc(C[N+]3([O-])CCC(C(O)(c4ccc(C(F)(F)F)cc4)c4ccc(C(F)(F)F)cc4)CC3)cc2)nc1` (centres unmarked) [Compound 73], the mortality at 100 µM under setting [1] was 100%.

`Cc1cccc(Oc2ccc(CN3CCC(C(O)(c4ccc(C(F)(F)F)cc4)c4ccc(C(F)(F)F)cc4)CC3)cc2)n1` [Compound 75]: under setting [1], the mortality at 100 µM came to 100%.

Consider `Cc1cccc(Oc2ccc(C[N+]3([O-])CCC(C(O)(c4ccc(C(F)(F)F)cc4)c4ccc(C(F)(F)F)cc4)CC3)cc2)n1` (centres unmarked) [Compound 76], for which the IC50 under setting [2] is 631 nM. Further, under setting [3], the LC50 was 6.31 µM. Further, the mortality at 100 µM under setting [1] was determined as 100%. Further, under setting [4], the “Percent Growth Inhibition” value worked out at 100%.

With `Cc1cccc(Oc2ccc(C[N+]3([O-])CCC(C(O)(c4ccc(C(F)(F)F)cc4)c4ccc(C(F)(F)F)cc4)CC3)cc2)[n+]1[O-]` (centres unmarked) [Compound 77], the mortality at 100 µM under setting [1] stood at 60%.

On to `OC(c1ccc(C(F)(F)F)cc1)(c1ccc(C(F)(F)F)cc1)C1CCN(Cc2ccc(OCc3ccccn3)cc2)CC1` [Compound 78], for which the mortality at 100 µM under setting [1] amounted to 100%.

`[O-][N+]1(Cc2ccc(OCc3ccccn3)cc2)CCC(C(O)(c2ccc(C(F)(F)F)cc2)c2ccc(C(F)(F)F)cc2)CC1` (centres unmarked) [Compound 79]: the mortality at 100 µM under setting [1] is 100%.

For `[O-][N+]1(Cc2ccc(OCc3cccnc3)cc2)CCC(C(O)(c2ccc(C(F)(F)F)cc2)c2ccc(C(F)(F)F)cc2)CC1` (centres unmarked) [Compound 82], the mortality at 100 µM under setting [1] amounted to 25%.

With `CC(Oc1ccc(CN2CCC(C(O)(c3ccc(C(F)(F)F)cc3)c3ccc(C(F)(F)F)cc3)CC2)cc1)c1ccccn1` (centres unmarked) [Compound 83], the IC50 under setting [2] is 1000 nM. For the same compound, the LC50 under setting [3] was 31.6 µM. Further, the mortality at 100 µM under setting [1] worked out at 100%. Besides, the “Percent Growth Inhibition” value under setting [4] is given as 100%.

Consider `CC(Oc1ccc(C[N+]2([O-])CCC(C(O)(c3ccc(C(F)(F)F)cc3)c3ccc(C(F)(F)F)cc3)CC2)cc1)c1ccccn1` (centres unmarked) [Compound 84], for which the mortality at 100 µM under setting [1] turned out to be 100%.

Take `CC(C)(Oc1ccc(CN2CCC(C(O)(c3ccc(C(F)(F)F)cc3)c3ccc(C(F)(F)F)cc3)CC2)cc1)c1ccccn1` [Compound 86]: the mortality at 100 µM under setting [1] was found to be 30%.

Consider `OC(c1ccc(C(F)(F)F)cc1)(c1ccc(C(F)(F)F)cc1)C1CCN(Cc2ccc(Oc3ncccn3)cc2)CC1` [Compound 95], for which the mortality at 100 µM under setting [1] stood at 100%.

On to `[O-][N+]1(Cc2ccc(Oc3ncccn3)cc2)CCC(C(O)(c2ccc(C(F)(F)F)cc2)c2ccc(C(F)(F)F)cc2)CC1` (centres unmarked) [Compound 96], for which, under setting [1], the mortality at 100 µM came to 100%.

As for `OC(c1ccc(C(F)(F)F)cc1)(c1ccc(C(F)(F)F)cc1)C1CCN(Cc2ccc(-c3nnn(CCF)n3)cc2)CC1` [Compound 98], the mortality at 100 µM under setting [1] was 100%.

Take `[O-][N+]1(Cc2ccc(-c3nnn(CCF)n3)cc2)CCC(C(O)(c2ccc(C(F)(F)F)cc2)c2ccc(C(F)(F)F)cc2)CC1` (centres unmarked) [Compound 99]: the mortality at 100 µM under setting [1] was determined as 100%.

Turning to `OC(c1ccc(C(F)(F)F)cc1)(c1ccc(C(F)(F)F)cc1)C1CCN(Cc2ccc(-c3ncccn3)cc2)CC1` [Compound 100], the mortality at 100 µM under setting [1] worked out at 100%.

Turning to `[O-][N+]1(Cc2ccc(-c3ncccn3)cc2)CCC(C(O)(c2ccc(C(F)(F)F)cc2)c2ccc(C(F)(F)F)cc2)CC1` (centres unmarked) [Compound 101], under setting [1], the mortality at 100 µM stood at 100%.

In the case of `OC(c1ccc(OC(F)(F)F)cc1)(c1ccccc1OC(F)(F)F)C1CCN(Cc2ccc(C3OCCO3)cc2)CC1` (centres unmarked) [Compound 103, N-[4-(1,3-dioxolan-2-yl)phenylmethyl]-4-[(4-trifluoromethoxyphenyl)(2-trifluoromethoxyphenyl)hydroxymethyl]piperidine], under setting [2], the IC50 was at most 316 nM. Moreover, the LC50 under setting [3] was 12.6 µM. Also, under setting [1], the mortality at 100 µM worked out at 100%. For the same compound, where the note is “Heliothis virescens, feed or water, 120 h, rate of application 4 (negative log of molar concentration in the diet), second instar larvae, 5 days, 25°C, * = average of more than one test, read-out: Percent Growth Inhibition”, the pest or weed control at 100 µM was found to be 100%.

Turning to `CCn1nnc(-c2ccc(CN3CCC(C(O)(c4ccc(C(F)(F)F)cn4)c4ccc(C(F)(F)F)cn4)CC3)cc2)n1` [Compound 104], the IC50 under setting [2] is at most 316 nM. In addition, the LC50 under setting [3] was 0.398 µM. The mortality at 100 µM under setting [1] was determined as 100%. The compound further showed a pl50 (negative log of the concentration that provides 50% growth inhibition, by linear regression, 5 days, * = average of more than one test) of 6.8. The “Percent Growth Inhibition” value under setting [4] is listed as 100%.
